# Measurements reported in US9102638B2, “Amidobenzothiazoles and process for the preparation thereof” (COUNCIL OF SCIENTIFIC & INDUSTRIAL RESEARCH, priority 2011, dated 2015).
# Legend:
# Assay type in all cases: cell-based
# [1] = tested on: prostate cancer cell lines; assay: In vitro activity against prostate cancer cell lines (panel range); details: Homo sapiens, read-out: GI50 values, range over the listed compounds and the panel
# Method: (§1) The in vitro anticancer activity studies for these amidobenzothiazoles were carried out at the National Cancer Institute, Maryland, USA.
# (§2) The amidobenzothiazoles have been tested against sixty human tumor cell lines derived from nine cancer types (leukemia cancer cell line, non-small cell lung cancer cell line, colon cancer cell line, CNS cancer cell line, melanoma cancer cell line, ovarian cancer cell line, renal cancer cell line, prostate cancer cell line and breast cancer cell lines). For these compounds results are expressed in GI50 values of that particular cancer cell at micro molar (μM) concentration as per NCI protocol.
# MDA-MB-468 = assay: In vitro cytotoxicity, NCI screen: MDA-MB-468 (Breast); details: Homo sapiens, read-out: GI50 values (μM conc.)
# Method: as §1, §2
# SF-295 = assay: In vitro cytotoxicity, NCI screen: SF-295 (CNS); details: Homo sapiens; SF-295, CNS panel, NCI protocol; read-out: GI50 values (μM conc.)
# Method: as §1, §2
# PC-3 = assay: In vitro cytotoxicity, NCI screen: PC-3 (Prostate); details: Homo sapiens; PC-3, Prostate panel, NCI protocol; read-out: GI50 values (μM conc.)
# Method: as §1, §2
# [2] = tested on: leukemia cancer cell lines; assay: In vitro activity against leukemia cancer cell lines (panel range); details: Homo sapiens, read-out: GI50 values, range over the listed compounds and the panel
# Method: as §1, §2
# HOP-92 = assay: In vitro cytotoxicity, NCI screen: HOP-92 (Non-small cell lung); details: Homo sapiens; HOP-92, Non-small cell lung panel, NCI protocol; read-out: GI50 values (μM conc.)
# Method: as §1, §2
# SK-OV-3 = assay: In vitro cytotoxicity, NCI screen: SK-OV-3 (Ovarian); details: Homo sapiens; SK-OV-3, Ovarian panel, NCI protocol; read-out: GI50 values (μM conc.)
# Method: as §1, §2
# OVCAR-3 = assay: In vitro cytotoxicity, NCI screen: OVCAR-3 (Ovarian); details: Homo sapiens; OVCAR-3, Ovarian panel, NCI protocol; read-out: GI50 values (μM conc.)
# Method: as §1, §2
# NCI-H322M = assay: In vitro cytotoxicity, NCI screen: NCI-H322M (Non-small cell lung); details: Homo sapiens, Non-small cell lung panel, NCI protocol, read-out: GI50 values (μM conc.)
# Method: as §1, §2
# TK-10 = assay: In vitro cytotoxicity, NCI screen: TK-10 (Renal); details: Homo sapiens; TK-10, Renal panel, NCI protocol; read-out: GI50 values (μM conc.)
# Method: as §1, §2
# OVCAR-8 = assay: In vitro cytotoxicity, NCI screen: OVCAR-8 (Ovarian); details: Homo sapiens; OVCAR-8, Ovarian panel, NCI protocol; read-out: GI50 values (μM conc.)
# Method: as §1, §2
# HOP-62 = assay: In vitro cytotoxicity, NCI screen: HOP-62 (Non-small cell lung); details: Homo sapiens; HOP-62, Non-small cell lung panel, NCI protocol; read-out: GI50 values (μM conc.)
# Method: as §1, §2
# OVCAR-4 = assay: In vitro cytotoxicity, NCI screen: OVCAR-4 (Ovarian); details: Homo sapiens; OVCAR-4, Ovarian panel, NCI protocol; read-out: GI50 values (μM conc.)
# Method: as §1, §2
# U251 = assay: In vitro cytotoxicity, NCI screen: U251 (CNS); details: Homo sapiens, U-251; U251, CNS panel, NCI protocol; read-out: GI50 values (μM conc.)
# Method: as §1, §2
# ACHN = assay: In vitro cytotoxicity, NCI screen: ACHN (Renal); details: Homo sapiens, Renal panel, NCI protocol, read-out: GI50 values (μM conc.)
# Method: as §1, §2
# UACC-257 = assay: In vitro cytotoxicity, NCI screen: UACC-257 (Melanoma); details: Homo sapiens; UACC-257, Melanoma panel, NCI protocol; read-out: GI50 values (μM conc.)
# Method: as §1, §2
# A549/ATCC = assay: In vitro cytotoxicity, NCI screen: A549/ATCC (Non-small cell lung); details: Homo sapiens, Non-small cell lung panel, NCI protocol, read-out: GI50 values (μM conc.)
# Method: as §1, §2
# MOLT-4 = assay: In vitro cytotoxicity, NCI screen: MOLT-4 (Leukemia); details: Homo sapiens; MOLT-4, Leukemia panel, NCI protocol; read-out: GI50 values (μM conc.)
# Method: as §1, §2
# HCT-116 = assay: In vitro cytotoxicity, NCI screen: HCT-116 (Colon); details: Homo sapiens, read-out: GI50 values (μM conc.)
# Method: as §1, §2
# 786-0 = assay: In vitro cytotoxicity, NCI screen: 786-0 (Renal); details: Homo sapiens; 786-0, Renal panel, NCI protocol; read-out: GI50 values (μM conc.)
# Method: as §1, §2
# RPMI-8226 = assay: In vitro cytotoxicity, NCI screen: RPMI-8226 (Leukemia); details: Homo sapiens; RPMI-8226, Leukemia panel, NCI protocol; read-out: GI50 values (μM conc.)
# Method: as §1, §2
# EKVX = assay: In vitro cytotoxicity, NCI screen: EKVX (Non-small cell lung); details: Homo sapiens, Non-small cell lung panel, NCI protocol, read-out: GI50 values (μM conc.)
# Method: as §1, §2
# MCF7 = assay: In vitro cytotoxicity, NCI screen: MCF7 (Breast); details: Homo sapiens; MCF7, Breast panel, NCI protocol; read-out: GI50 values (μM conc.)
# Method: as §1, §2
# HS 578T = assay: In vitro cytotoxicity, NCI screen: HS 578T (Breast); details: Homo sapiens, read-out: GI50 values (μM conc.)
# Method: as §1, §2
# CNS cancer cell lines = assay: In vitro activity against CNS cancer cell lines (panel range); details: Homo sapiens, read-out: GI50 values, range over the listed compounds and the panel
# Method: as §1, §2
# SNB-75 = assay: In vitro cytotoxicity, NCI screen: SNB-75 (CNS); details: Homo sapiens; SNB-75, CNS panel, NCI protocol; read-out: GI50 values (μM conc.)
# Method: as §1, §2
# CAKI-1 = assay: In vitro cytotoxicity, NCI screen: CAKI-1 (Renal); details: Homo sapiens; CAKI-1, Renal panel, NCI protocol; read-out: GI50 values (μM conc.)
# Method: as §1, §2
# NCI-H522 = assay: In vitro cytotoxicity, NCI screen: NCI-H522 (Non-small cell lung); details: Homo sapiens; NCI-H522, Non-small cell lung panel, NCI protocol; read-out: GI50 values (μM conc.)
# Method: as §1, §2
# BT-549 = assay: In vitro cytotoxicity, NCI screen: BT-549 (Breast); details: Homo sapiens, read-out: GI50 values (μM conc.)
# Method: as §1, §2
# SW-620 = assay: In vitro cytotoxicity, NCI screen: SW-620 (Colon); details: Homo sapiens; SW-620, Colon panel, NCI protocol; read-out: GI50 values (μM conc.)
# Method: as §1, §2
Structure (SMILES),GI50 [1] [µM],GI50 (MDA-MB-468) [µM],GI50 (SF-295) [µM],GI50 (PC-3) [µM],GI50 [2] [µM],GI50 (HOP-92) [µM],GI50 (SK-OV-3) [µM],GI50 (OVCAR-3) [µM],GI50 (NCI-H322M) [µM],GI50 (TK-10) [µM],GI50 (OVCAR-8) [µM],GI50 (HOP-62) [µM],GI50 (OVCAR-4) [µM],GI50 (U251) [µM],GI50 (ACHN) [µM],GI50 (UACC-257) [µM],GI50 (A549/ATCC) [µM],GI50 (MOLT-4) [µM],GI50 (HCT-116) [µM],GI50 (786-0) [µM],also measured
"COc1ccc2nc(NC(=O)COc3cc(/C=C\c4cc(OC)c(OC)c(OC)c4)ccc3OC)sc2c1 [Compound 8g, N1-(6-methoxy-1,3-benzothiazol-2-yl)-2-{2-methoxy-5-[(Z)-2-(3,4,5-trimethoxyphenyl)-1-ethenyl]phenoxy}acetamide]",0.18 to 22.9,2.29,1.84,4.45,0.037 to 29.9,6.28,4.69,2.17,> 100,7.54,5.28,23,5.31,4,7.77,63,5.19,3.87,3.7,7.52,GI50 (RPMI-8226): 5.43 µM; GI50 (EKVX): 5.11 µM; GI50 (MCF7): 2.88 µM; GI50 (HS 578T): 4.15 µM; GI50 (CNS cancer cell lines): 0.045 to 18.8 µM; GI50 (SNB-75): 1.91 µM; GI50 (CAKI-1): 3.2 µM; GI50 (NCI-H522): 3.09 µM; GI50 (BT-549): 21.2 µM; GI50 (SW-620): 5.1 µM
"COc1ccc(/C=C\c2cc(OC)c(OC)c(OC)c2)cc1OCC(=O)Nc1nc2ccc(C(F)(F)F)cc2s1 [Compound 8i, N1-(6-(trifluoromethyl)-1,3-benzothiazol-2-yl)-2-{2-methoxy-5-[(Z)-2-(3,4,5-trimethoxyphenyl)-1-ethenyl]phenoxy}acetamide]",0.18 to 22.9,2.16,3.36,4.32,0.037 to 29.9,2.88,3.29,2.11,5.38,7.03,3.86,5.22,4.66,3.67,4.82,40,4.46,3.75,3.29,6.96,GI50 (RPMI-8226): 5.48 µM; GI50 (EKVX): 6.25 µM; GI50 (MCF7): 3.16 µM; GI50 (HS 578T): 4.18 µM; GI50 (CNS cancer cell lines): 0.045 to 18.8 µM; GI50 (SNB-75): 1.58 µM; GI50 (CAKI-1): 3.1 µM; GI50 (NCI-H522): 2.89 µM; GI50 (BT-549): 5.23 µM; GI50 (SW-620): 4.65 µM
